Measurements published in patent publication US20120309838A1, “USE OF AGOMELATINE IN OBTAINING MEDICAMENTS INTENDED FOR THE TREATMENT OF OBSESSIVE-COMPULSIVE DISORDER (OCD)” (Les Laboratoires Servier, priority 2010, published 2012).
“Also recorded” adds a separate entry of the source.

Tests used:
[1] = tested on: Male mice of the NMRI strain; test: Spontaneous marble burying in mice (model of Obsessive-Compulsive Disorder); format: in vivo; details: for number of marbles buried: injected 30 minutes before test, 30 minutes' exploration, 24 marbles, carrier 20.2±0.6
Procedure: Pre-clinical studies were carried out using a model of Obsessive-Compulsive Disorder (OCD), confirming the potential of agomelatine for treatment of this pathology. […] The study was carried out as follows. Male mice of the NMRI strain (Iffa-Credo, L'Arbresle, France), weighing 20-25 g on the day of the experiment, were placed individually in Macrolon boxes (30×18×19 cm) containing 5 cm of sawdust and covered with a perforated plexiglass plate. Twenty-four “cat's eye” glass marbles were evenly distributed on the sawdust at the periphery of the box. At the end of 30 minutes' free exploration, the animals were removed from the box and the number of buried marbles was counted. Agomelatine or the carrier (control) was injected 30 minutes before the start of the test.

[2] = tested on: out-patients having a primary diagnosis of Obsessive-Compulsive Disorder; test: Double-blind placebo-controlled clinical study in out-patients with Obsessive-Compulsive Disorder; format: in vivo, human; details: 25 mg, 16 weeks of treatment
Procedure: A clinical study comparing agomelatine with placebo was carried out in 80 out-patients more than 18 and less than 65 years in age, having a primary diagnosis of Obsessive-Compulsive Disorder according to the criteria of DSM-IV-TR. The patients must have, on entry into the study, a score of 20 or more on the Y-BOCS scale (Yale Brown Obsessive Compulsive Scale) and have been previously treated for their Obsessive-Compulsive Disorder with a serotonin reuptake inhibitor (SRI). The patients must have a depression severity score of less than 24 on the MADRS depression scale.
The study is a double-blind placebo-controlled study for a duration of treatment of 16 weeks. The patients are randomised either into the placebo group or into the 25 mg agomelatine group with the possibility of increasing the dose of agomelatine to 50 mg in the event of failure to respond after 8 weeks of treatment (criterion for failure to respond: less than 20% reduction in the total Y-BOCS score).
The main criterion for the assessment of efficacy is the reduction in the total score on the Y-BOCS scale. […] The presence of depressive symptoms and their course over time are analysed by the MADRS depression scale at the start of treatment and after 16 weeks of treatment. […]

patients = test: Tolerability observed in clinical trials on close to 3900 patients; format: in vivo, human
Excerpt: Amongst those effects, the discontinuation syndrome observed on stopping treatment with the customary psychotropic agents is absent in the case of agomelatine, which makes it a treatment of choice in this indication.

COc1ccc2cccc(CCNC(C)=O)c2c1 [Agomelatine, N-[2-(7-methoxy-1-naphthyl)ethyl]acetamide]
number of marbles buried ([1]; 10 mg/kg intraperitoneal, n=6): 19.2±1.3
number of marbles buried ([1]; 40 mg/kg intraperitoneal, n=6, P<0.05 vs carrier): 15.3±3.0
number of marbles buried ([1]; 80 mg/kg intraperitoneal, n=5, P<0.05 vs carrier): 4.6±1.9
effect on spontaneous marble burying (in words) ([1]; intraperitoneal, doses of 10, 40 and 80 mg/kg): greatly reduced spontaneous marble burying in mice in dose-dependent manner; also recorded: statistically significant activity
efficacy in the treatment of Obsessive-Compulsive Disorder (in words) ([2]; possibly increased to 50 mg after 8 weeks, versus placebo, 80 out-patients): confirm the efficacy
acceptability profile (in words) ([2]; possibly increased to 50 mg): good acceptability profile
tolerability (in words) (patients; clinical trials on close to 3900 patients): excellent tolerability
discontinuation syndrome on stopping treatment (patients; compared with the customary psychotropic agents): absent
